Measurements from the supplement of paper PMC4862054.
Where “and” joins values, the source holds several entries; their conditions need not be identical. Equal values may be shown once.

Legend:
Assay in all cases: normalised viability (% of control), CellTiter-Blue; higher = more viable cells (about 100 = DMSO control)
Conditions in all cases: incubation time: 72 h
[1] = test system: CAL-148
Method: (§1)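 DSRT, CellTiter-Blue viability, 72 h incubation. Signal is normalised to DMSO and benzethonium chloride controls. Value is the normalised response at dose 8.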

[2] = test system: CAL-51
Method: as §1

[3] = test system: CAL-85-1
Method: as §1

[4] = test system: DU-4475
Method: as §1

[5] = test system: HDQ-P1
Method: as §1

[6] = test system: MDA-MB-453
Method: as §1

[7] = test system: CAL-148; remark: listed apart in the source
Method: (§2)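 DSRT, CellTiter-Blue viability, 72 h incubation. Signal is normalised to DMSO and benzethonium chloride controls. Value is the normalised response at dose 6.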

[8] = test system: CAL-51; remark: listed apart in the source
Method: as §2

[9] = test system: CAL-85-1; remark: listed apart in the source
Method: as §2

[10] = test system: DU-4475; remark: listed apart in the source
Method: as §2

[11] = test system: MDA-MB-453; remark: listed apart in the source
Method: as §2

[12] = test system: CAL-148; remark: listed apart in the source
Method: (§3)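 DSRT, CellTiter-Blue viability, 72 h incubation. Signal is normalised to DMSO and benzethonium chloride controls. Value is the normalised response at dose 9.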

[13] = test system: CAL-51; remark: listed apart in the source
Method: as §3

[14] = test system: CAL-85-1; remark: listed apart in the source
Method: as §3

[15] = test system: DU-4475; remark: listed apart in the source
Method: as §3

[16] = test system: MDA-MB-453; remark: listed apart in the source
Method: as §3

| Structure (SMILES) | normalised viability [1] | normalised viability [2] | normalised viability [3] | normalised viability [4] | normalised viability [5] | normalised viability [6] | normalised viability [7] | normalised viability [8] | normalised viability [9] | normalised viability [10] | normalised viability [11] | normalised viability [12] | normalised viability [13] | normalised viability [14] | normalised viability [15] | normalised viability [16] |
| --- | --- | --- | --- | --- | --- | --- | --- | --- | --- | --- | --- | --- | --- | --- | --- | --- |
| O=c1[nH]cc(F)c(=O)[nH]1 [Fluorouracil] (3000 nM) | 65.6% | 87.9% | 62.6% | 81.6% | 87.8% | 85.7% |  |  |  |  |  |  |  |  |  |  |
| C[C@@H]1C=C2C(=O)O[C@@H]3CC[C@H](C1)[C@]23O [Galiellalactone] (15000 nM) | 52.8% | 124% | 14.1% | 126% | 75.3% | 20.3% |  |  |  |  |  |  |  |  |  |  |
| COC1=C2C[C@@H](C)C[C@H](OC)[C@H](O)[C@@H](C)/C=C(\C)[C@H](OC(N)=O)[C@@H](OC)/C=C\C=C(/C)C(=O)NC(=CC1=O)C2=O [Geldanamycin] (3000 nM) | 10.8% | 8.15% | 11.6% | -0.3% | 16.7% | 8.03% |  |  |  |  |  |  |  |  |  |  |
| O=P(O)(NCCCl)NCCCl [Ifosfamide mustard] (3000 nM) | 100% | 108% | 96.5% | 104% | 106% | 114% |  |  |  |  |  |  |  |  |  |  |
| CS(=O)(=O)CCNCc1ccc(-c2ccc3ncnc(Nc4ccc(OCc5cccc(F)c5)c(Cl)c4)c3c2)o1 [Lapatinib] (300 nM) |  |  |  |  |  |  | 87.1% and 91.6% | 112% and 98.5% | 89.5% and 86.2% | 87.4% and 108% | 42.9% and 43.1% |  |  |  |  |  |
| CS(=O)(=O)CCNCc1ccc(-c2ccc3ncnc(Nc4ccc(OCc5cccc(F)c5)c(Cl)c4)c3c2)o1 [Lapatinib] (3000 nM) | 80.7% and 87.1% | 107% and 96.5% | 52.1% and 54.6% | 117% and 105% | 84.5% and 104% | 33.4% and 38.4% |  |  |  |  |  |  |  |  |  |  |
| CS(=O)(=O)CCNCc1ccc(-c2ccc3ncnc(Nc4ccc(OCc5cccc(F)c5)c(Cl)c4)c3c2)o1 [Lapatinib] (10000 nM) |  |  |  |  |  |  |  |  |  |  |  | 60.4% and 65.6% | 90% and 94.5% | 30% and 39.3% | 117% and 99.2% | 20.9% and 28.7% |
| Cn1cnc2c(F)c(Nc3ccc(Br)cc3F)c(C(=O)NOCCO)cc21 [MEK-162] (300 nM) | 87.1% | 90% | 86.7% | 4.15% | 95.6% | 136% |  |  |  |  |  |  |  |  |  |  |
| CCOc1cc2ncc(C#N)c(Nc3ccc(OCc4ccccn4)c(Cl)c3)c2cc1NC(=O)/C=C/CN(C)C [Neratinib] (300 nM) | 101% | 88% | 121% | 87.2% | 122% | 79.9% |  |  |  |  |  |  |  |  |  |  |
| COc1ccc(C2=N[C@@H](c3ccc(Cl)cc3)[C@@H](c3ccc(Cl)cc3)N2C(=O)N2CCNC(=O)C2)c(OC(C)C)c1 [Nutlin-3] (3000 nM) | 72.6% | 73% | 101% | 67.5% | 120% | 83.9% |  |  |  |  |  |  |  |  |  |  |
| COC1=CC(c2cc3ccccc3[nH]2)=N/C1=C\c1[nH]c(C)cc1C [Obatoclax] (3000 nM) | 59.6% | 38.5% | 31.2% | 78.5% | 39.3% | 33.4% |  |  |  |  |  |  |  |  |  |  |
| COC(=O)C[C@](O)(CCCC(C)(C)O)C(=O)O[C@@H]1C(OC)=C[C@]23CCCN2CCc2cc4c(cc2[C@H]13)OCO4 [Omacetaxine mepesuccinate] (3000 nM) | 5.63% | 5.99% | 2% | 3.79% | 13.4% | 5.64% |  |  |  |  |  |  |  |  |  |  |
| CC(=O)O[C@H]1C(=O)[C@@]2(C)[C@H]([C@H](OC(=O)c3ccccc3)[C@]3(O)C[C@H](OC(=O)[C@H](O)[C@@H](NC(=O)c4ccccc4)c4ccccc4)C(C)=C1C3(C)C)[C@]1(OC(C)=O)CO[C@@H]1C[C@@H]2O [Paclitaxel] (300 nM) | 16.1% | 20.6% | 25.5% | 16.9% | 26.6% | 24.7% |  |  |  |  |  |  |  |  |  |  |
| CC(C)(C)c1cc(NC(=O)Nc2ccc(-c3cn4c(n3)sc3cc(OCCN5CCOCC5)ccc34)cc2)no1 [Quizartinib] (300 nM) | 102% | 102% | 106% | 98.5% | 103% | 110% |  |  |  |  |  |  |  |  |  |  |
| COc1cc(Nc2ncc(F)c(Nc3ccc4c(n3)NC(=O)C(C)(C)O4)n2)cc(OC)c1OC [R406] (3000 nM) | 105% | 109% | 67.9% | 92.6% | 98.3% | 110% |  |  |  |  |  |  |  |  |  |  |
| O=C(c1ccc(OCCN2CCCCC2)cc1)c1c(-c2ccc(O)cc2)sc2cc(O)ccc12 [Raloxifene] (3000 nM) | 109% | 101% | 94.3% | 121% | 89.1% | 91.9% |  |  |  |  |  |  |  |  |  |  |
| Cn1c(=O)c(F)c(Nc2ccc(I)cc2F)c2c(=O)n(C[C@@H](O)CO)cnc21 [TAK-733] (300 nM) | 77.9% | 76.7% | 53.5% | 0.88% | 63.6% | 70.8% |  |  |  |  |  |  |  |  |  |  |
| CCS(=O)(=O)c1cccc(-c2cc(C(=O)NC3CCN(C)CC3)c(C)c3[nH]c4ncc(C)cc4c23)c1 [TAK-901] (300 nM) | 74% | 42.5% | 53.2% | 76.5% | 49.2% | 60% |  |  |  |  |  |  |  |  |  |  |
| c1ccc(C2CN3CCSC3=N2)cc1 (stereo not drawn) [Tetramisole] (3000 nM) | 109% | 101% | 93.5% | 95.4% | 101% | 116% |  |  |  |  |  |  |  |  |  |  |
| CCCC(CCC)C(=O)O [Valproic acid] (3000 nM) | 104% | 103% | 90% | 88% | 112% | 103% |  |  |  |  |  |  |  |  |  |  |
